The results in this text go back to US20200223839A1, “FLUORO-CONTAINING COMPOUNDS, USE AND PREPARATION THEREOF” (JIANGSU YINGKEBEITA YIYAOKEJI CO. LTD, priority 2017, published 2020).

The test system of one series is BT474. Kind of series: Cell culture and cytotoxicity assay (CTG), BT474. The class given is cell-based. Conditions: Homo sapiens, BT-474, BT474, exposure 96 hours. The protocol:
(§1) The assayed compounds each was dissolved in DMSO with a final concentration of 10 mM or 40 mM and stored at −20° C. Tumor cell lines A549 (7,000 cells/well), BT474 (12,000 cells/well), MDA-MB-468 (12,000 cells/well), and HCC1937 (6,000 cells/well) were seeded on 96-well plates. And the cells were pre-incubated at 37° C./5% CO2 for 24 hours. The cells were exposed to different concentrations of the assay compounds (from 400 μM to 782 nM, from 200 μM to 391 nM, from 100 μM to 196 nM, and from 50 μM to 98 nM) for the following time:
(§2) After incubation, 100 μL from each well was discarded and CTG base (Proega, G7571, 50 μL) was added and the mixture was agitated for 2 minutes. The mixtures were stored in a dark room for 10 minutes and the viability was analyzed with Multiskan microplate reader.

For the next series, the system named is HCC1937. As to the kind of experiment: Cell culture and cytotoxicity assay (CTG), HCC1937. The class given is cell-based. The conditions noted are these: Homo sapiens, HCC1937, exposure 72 hours. The protocol:
as §1, §2

A further series relates to MCF-7. As to the kind of experiment: Cytotoxicity assay by the CTG method, MCF-7. The class given is cell-based. Conditions: Homo sapiens, MCF7, MCF-7, Breast cancer, 72 h. The procedure: (§3) The corresponding cells were harvested from flask into cell culture medium and the cell number were counted. The cells were diluted with culture medium to the desired density and 40 μL of cell suspension was added into each well of 384-well cell culture plate as designated. The plates were covered with lid and placed in room temperature for 30 minutes without shaking and then were transferred plates into 37° C. 5% CO2 incubator overnight for cell attachment.
(§4) Compound preparation and treatment: Test compounds were received or dissolved at 30 mM stock solution and control compound Staurosporine was stored as 10 mM and 1 mM concentration. 45 uL of stock solution was transferred to a 384 pp-plate. 3 fold, 10-point dilution were performed via transferring 15 uL compound into 30 μL DMSO by using TECAN (EVO200) liquid handler. The plates were spun at room temperature at 1,000 RPM for 1 minute and shaken at a plate shaker for 2 minutes. […]
(§5) The plate from incubators were placed and equilibrated at room temperature for 15 minutes. […] 40 μL of CellTiter-Glo reagent were transferred into each well to be detected (at 1:1 to culture medium). Then the plates were placed at room temperature for 30 min followed by reading on EnSpire.
(§6) The inhibition activity was calculated following the formula below: […]
(§7) The IC50 were calculated by fitting the Curve using Xlfit (v5.3.1.3): […]

The next series concerns BT-474. Kind of series: Cytotoxicity assay by the CTG method, BT-474. The class given is cell-based. The conditions noted are these: Homo sapiens, BT-474, Breast cancer, 72 h. The procedure:
as §3, §4, §5, §6, §7

Another series concerns ZR-75-1. Kind of series: Cytotoxicity assay by the CTG method, ZR-75-1. The class given is cell-based. Conditions: Homo sapiens, ZR-75-1, Breast cancer, 72 h. The protocol:
as §3, §4, §5, §6, §7

A further series has as its system COLO205. As to the kind of experiment: Cytotoxicity assay by the CTG method, COLO205. Type of series: cell-based. The conditions noted are these: Homo sapiens, COLO 205, COLO205, Colon cancer, 72 h. The protocol:
as §3, §4, §5, §6, §7

Another series has as its system HCT116. Kind of series: Cytotoxicity assay by the CTG method, HCT116. Type of series: cell-based. Conditions: Homo sapiens, HCT-116, HCT116, Colon cancer, 72 h. The protocol:
as §3, §4, §5, §6, §7

A further series relates to HT29. As to the kind of experiment: Cytotoxicity assay by the CTG method, HT29. The class given is cell-based. Conditions: Homo sapiens, HT-29, HT29, Colon cancer, 72 h. The protocol:
as §3, §4, §5, §6, §7

In a further series the test system is LoVo. As to the kind of experiment: Cytotoxicity assay by the CTG method, LoVo. The class given is cell-based. Conditions: Homo sapiens, Colon cancer, 72 h. The protocol:
as §3, §4, §5, §6, §7

Another series concerns A498. As to the kind of experiment: Cytotoxicity assay by the CTG method, A498. Type of series: cell-based. Conditions: Homo sapiens, A498, Kidney cancer, 72 h. The procedure:
as §3, §4, §5, §6, §7

The subject of the next series is MOLT4. Kind of series: Cytotoxicity assay by the CTG method, MOLT4. The class given is cell-based. Conditions: Homo sapiens, MOLT-4, MOLT4, Leukemia, 72 h. The procedure: as §3, §4, §5, §6, §7
A further series has as its system HL-60. Kind of series: Cytotoxicity assay by the CTG method, HL-60. Type of series: cell-based. Conditions: Homo sapiens, HL-60, Leukemia, 72 h. The protocol:
as §3, §4, §5, §6, §7

For the next series, the system named is MV-4-11. As to the kind of experiment: Cytotoxicity assay by the CTG method, MV-4-11. The class given is cell-based. The conditions noted are these: Homo sapiens, MV4-11, MV-4-11, Leukemia, 72 h. The protocol: as §3, §4, §5, §6, §7
Another series relates to PLC/PRF/5. As to the kind of experiment: Cytotoxicity assay by the CTG method, PLC/PRF/5. The class given is cell-based. Conditions: Homo sapiens, PLC/PRF/5, Liver cancer, 72 h. The procedure: as §3, §4, §5, §6, §7
A further series has as its system U937. As to the kind of experiment: Cytotoxicity assay by the CTG method, U937. The class given is cell-based. The conditions noted are these: Homo sapiens, U-937, U937, Lymphoma, 72 h. The protocol:
as §3, §4, §5, §6, §7

For another series, the system named is A2058. As to the kind of experiment: Cytotoxicity assay by the CTG method, A2058. The conditions noted are these: Homo sapiens, A2058, Melanoma, 72 h. The class given is cell-based. The protocol:
as §3, §4, §5, §6, §7

In the next series the test system is OVCAR-3. Kind of series: Cytotoxicity assay by the CTG method, OVCAR-3. The class given is cell-based. Conditions: Homo sapiens, OVCAR-3, Ovarian cancer, 72 h. The protocol:
as §3, §4, §5, §6, §7

For another series, the system named is PC-3. As to the kind of experiment: Cytotoxicity assay by the CTG method, PC-3. Type of series: cell-based. Conditions: Homo sapiens, PC-3, Prostate cancer, 72 h. The procedure: as §3, §4, §5, §6, §7
The test system of a further series is LNCaP. As to the kind of experiment: Cytotoxicity assay by the CTG method, LNCaP. Type of series: cell-based. The conditions noted are these: Homo sapiens, Prostate cancer, 72 h. The procedure: as §3, §4, §5, §6, §7
The test system of series [1] is MDA-MB-468 cells (human breast cancer) implanted in BALB/c-nu mice. Kind of series: In vivo xenograft study, MDA-MB-468, tumor sizes. Conditions: MDA-MB-468 xenograft in BALB/c-nu mice, FIGS. 2 and 4. The procedure:
(§8) MDA-MB-468 cells (human breast cancer) in its log growth phase were implanted in BALB/c-nu mice. When the tumor volume was approximately 50-150 mm^3, the mice were randomized into four groups, each include 8 mice. The four groups were treated with vehicle, Ref. 1, 4f, and Ref. 2, respectively, and the tumor sizes were measured two to three times each week and the mice were also weighted.

A short description of series [2]: In vivo xenograft study, MDA-MB-468, mice weights. Conditions: MDA-MB-468 xenograft in BALB/c-nu mice, FIGS. 3 and 5. The procedure:
as §8

Series [3] in a line: In vivo mouse model, Hep3B, mice weights. The text has this:
Hep3B cells (human liver cancer) were also studied in a mouse model. […] FIG. 9.

Turning to `Cc1ccc(S(=O)(=O)Nc2nc3ccccc3nc2Nc2ccc3nsnc3c2)cc1F` [Compound 4f, N-[3-(benzo[1,2,5]thiadiazol-5-ylamino)-quinoxalin-2-yl]-3-fluoro-4-methyl-benzenesulfonamide], the IC50 was 12500 to 25000 nM in the series on BT474; 37900 nM in the series on HCC1937; 5.19 µM in the series on MCF-7; 7.01 µM with BT-474; 1.53 µM with ZR-75-1; 2.99 µM in the series with COLO205. The IC50 in the series with HCT116 stood at 5.44 µM; with HT29, 2.44 µM; in the series with LoVo it was 21.7 µM; in the series on A498 it was 3.68 µM; in the series with MOLT4 it was 4.72 µM; with HL-60 it was 7.61 µM. Moreover, the IC50 amounted to 6.8 µM in the series on MV-4-11; 3.27 µM with PLC/PRF/5; 3.68 µM in the series on U937; 7.7 µM in the series on A2058; 6.68 µM in the series with OVCAR-3; 6.05 µM in the series with PC-3. In the series with LNCaP, this molecule registered an IC50 of 3.2 µM. For the same molecule, the “anticancer activity (tumor sizes) versus vehicle” value in series [1] is recorded as “significant anticancer activities”. Further, the “weight changes of mice” value in series [2] is “no significant weight changes”. For the same molecule, the weight changes entry is “no difference in weight changes” in [3] (FIG. 9, 50 mg/Kg) and “no difference in weight changes” in series [3] (FIG. 9, 100 mg/Kg).

Broadly, the IC50 is the concentration that gives 50% inhibition. Read a low IC50 as inhibition by little substance.
